Test results as given in publication PMC12735872, “Development of ^18F/^11C-Labeled Pyrrolo-Pyridine/Pyrimidine LRRK2 Selective PET Radioligands” (Pharmaceuticals, 2025).
Like-named read-outs stand apart in the source and are kept apart here.

Assay: Plasma protein binding by ultrafiltration
Assay type: in vitro ADME, non-human primate (NHP)
Conditions: cynomolgus monkey, pH 7.4, NHP plasma, baseline
Method: The plasma protein binding of all three radioligands was determined in duplicate at the baseline condition according to a previously published method. For each blood plasma sample, 500 μL of non-human primate (NHP) blood plasma was used with 50 μL PBS (pH 7.4 containing KCl 0.2 mg, KH2PO4 0.2 mg, Na2HPO4 1.42 mg, and NaCl 8 mg per mL). The mixture included around 20 MBq of the corresponding radioligand in PBS. Samples underwent incubation at room temperature for 10 min. A small aliquot (20 µL) was taken from each mixture, and radioactivity measurements were performed using a well counter. From each mixture, 200 µL was placed into ultrafiltration tubes (Millipore Centrifree YM-30) and centrifuged at 3000 rpm for 15 minutes. The remaining filtrates were analyzed and aliquots (20 µL) were counted in the well counter described earlier. Protein-bound fractions were calculated as follows:(1) C⥂pla (filtrate) /Cpla (total) ÷CPBS (filtrate) /CPBS (total) ×100(%)
Cpla (total) represents the radioactivity concentration of incubation mixture in plasma and CPBS (total) represents the radioactivity concentration of incubation mixture in PBS. Cpla (filtrate) and CPBS (filtrate) are the radioactivity concentrations from filtrate samples.

[1] = read-out: Free fraction in plasma (fP)
[2] = read-out: Plasma protein binding (converted)

fraction unbound at 10 min [1]	fraction unbound at 10 min [2]	SMILES
~0.45	~0.45	C[C@@H]1C[C@@H]([18F])CN1c1c(C#N)c2c(N)nccc2n1C [[^18F]1, 4-Amino-2-((2R,4R)-4-[^18F]fluoro-2-methylpyrrolidin-1-yl)-1-methyl-1H-pyrrolo[3,2-c]pyridine-3-carbonitrile]
~0.6	~0.6	C[C@@H]1C[C@@H]([18F])CN1c1c(C#N)c2c(N)ncnc2n1C [[^18F]2, 4-Amino-6-((2R,4R)-4-[^18F]fluoro-2-methyl Pyrrolidin-1-yl)-7-methyl-7H-pyrrolo[2,3-d]pyrimidine-5-carbonitrile]
